# Measurements published in article PMC9186362, “Design and biological evaluation of substituted 5,7-dihydro-6H-indolo[2,3-c]quinolin-6-one as novel selective Haspin inhibitors” (Journal of Enzyme Inhibition and Medicinal Chemistry, 2022).
# Experiments:
# [1] = test system: U-2 OS, HCT116, MDA-MB231, SH-SY5Y and RPE-1 cell lines; experiment: Cell viability primary screen at 25 μM; format: cell-based, human; settings: 48 h
# Experimental: HCT116 cells were cultured in McCoy’s medium. SH-SY5Y, MDA-MB231 and U-2 OS cells were cultured in Dulbecco's modified Eagle's medium (DMEM) and hTERT RPE-1 cells in DMEM:F12 medium. All media were supplemented with 10% foetal calf serum and cells were cultured at 37 °C in a 5% CO2 humidified atmosphere.
# Cell viability was then assessed using the CellTiter96 AQueous cell proliferation assay from Promega according to the manufacturer’s instructions. Each experiment was done in triplicate and EC50 were determined from the dose-response curves according to the signal given by the control (0.1% DMSO) set at 100% viability using Prism GraphPad software.
# NUAK1 (ARK5) = NUAK1 (ARK5) (Homo sapiens, UniProt O60285); experiment: SelectScreen Adapta; format: biochemical; settings: ATP Km, read-out: Percentage of inhibition
# Experimental: (§1) We further evaluated the selectivity profile of compound 55 on a larger panel of kinases (SelectScreen Whole Panel, Life Technologies). The inhibition profile of 55, evaluated at 1 μM, is depicted on a dendrogram on Figure 3 where kinases inhibited by a minimum of 80% are shown. A full list of the kinases tested is shown on Table S1 in supplementary information.
# IRAK1 = target: T1, IRAK1 (Homo sapiens, UniProt P51617); experiment: SelectScreen Adapta; format: biochemical; settings: ATP Km, read-out: Percentage of inhibition
# T1 construct: purchased Life Technologies (SelectScreen service)
# Experimental: as §1
# [2] = target: PIK3CA/PIK3R1 (p110 alpha/p85 alpha) (Homo sapiens, UniProt P42336); experiment: SelectScreen Adapta; format: biochemical; settings: ATP Km, read-out: Percentage of inhibition
# Experimental: as §1
# PIP5K1C = target: T2, PIP5K1C (Homo sapiens, UniProt O60331); experiment: SelectScreen Adapta; format: biochemical; settings: ATP 10 µM, read-out: Percentage of inhibition
# T2 construct: purchased Life Technologies (SelectScreen Whole Panel service)
# Experimental: as §1
# [3] = target: T3, PIK3CB/PIK3R2 (p110 beta/p85 beta) (Homo sapiens, UniProt P42338); experiment: SelectScreen Adapta; format: biochemical; settings: ATP Km, read-out: Percentage of inhibition
# T3 construct: purchased Life Technologies
# Experimental: as §1
# [4] = target: T4, PIK3CA E545K/PIK3R1 (p110 alpha E545K/p85 alpha) (Homo sapiens, UniProt P42336, E545K); experiment: SelectScreen Adapta; format: biochemical; settings: ATP Km, read-out: Percentage of inhibition
# T4 construct: purchased Life Technologies (SelectScreen Whole Panel)
# Experimental: as §1
# [5] = target: T5, PIK3CB/PIK3R1 (p110 beta/p85 alpha) (Homo sapiens, UniProt P42338); experiment: SelectScreen Adapta; format: biochemical; settings: ATP Km, read-out: Percentage of inhibition
# T5 construct: purchased Life Technologies (SelectScreen)
# Experimental: as §1
# CDK9/cyclin T1 = CDK9/cyclin T1 (Homo sapiens, UniProt P50750); experiment: SelectScreen Adapta; format: biochemical; settings: ATP Km, read-out: Percentage of inhibition
# Experimental: as §1
# PIK3C3 (hVPS34) = target: T6, PIK3C3 (hVPS34) (Homo sapiens, UniProt Q8NEB9); experiment: SelectScreen Adapta; format: biochemical; settings: ATP Km, read-out: Percentage of inhibition
# T6 construct: purchased Life Technologies (SelectScreen)
# Experimental: as §1
# [6] = target: T7, PIK3CD/PIK3R1 (p110 delta/p85 alpha) (Homo sapiens, UniProt O00329); experiment: SelectScreen Adapta; format: biochemical; settings: ATP Km, read-out: Percentage of inhibition
# T7 construct: purchased Life Technologies (SelectScreen Whole Panel service)
# Experimental: as §1
# LRRK2 FL = target: T8, LRRK2 FL (Homo sapiens, UniProt Q5S007); experiment: SelectScreen Adapta; format: biochemical; settings: ATP Km, read-out: Percentage of inhibition
# T8 construct: purchased Life Technologies
# T8 sequence (Q5S007 whole entry): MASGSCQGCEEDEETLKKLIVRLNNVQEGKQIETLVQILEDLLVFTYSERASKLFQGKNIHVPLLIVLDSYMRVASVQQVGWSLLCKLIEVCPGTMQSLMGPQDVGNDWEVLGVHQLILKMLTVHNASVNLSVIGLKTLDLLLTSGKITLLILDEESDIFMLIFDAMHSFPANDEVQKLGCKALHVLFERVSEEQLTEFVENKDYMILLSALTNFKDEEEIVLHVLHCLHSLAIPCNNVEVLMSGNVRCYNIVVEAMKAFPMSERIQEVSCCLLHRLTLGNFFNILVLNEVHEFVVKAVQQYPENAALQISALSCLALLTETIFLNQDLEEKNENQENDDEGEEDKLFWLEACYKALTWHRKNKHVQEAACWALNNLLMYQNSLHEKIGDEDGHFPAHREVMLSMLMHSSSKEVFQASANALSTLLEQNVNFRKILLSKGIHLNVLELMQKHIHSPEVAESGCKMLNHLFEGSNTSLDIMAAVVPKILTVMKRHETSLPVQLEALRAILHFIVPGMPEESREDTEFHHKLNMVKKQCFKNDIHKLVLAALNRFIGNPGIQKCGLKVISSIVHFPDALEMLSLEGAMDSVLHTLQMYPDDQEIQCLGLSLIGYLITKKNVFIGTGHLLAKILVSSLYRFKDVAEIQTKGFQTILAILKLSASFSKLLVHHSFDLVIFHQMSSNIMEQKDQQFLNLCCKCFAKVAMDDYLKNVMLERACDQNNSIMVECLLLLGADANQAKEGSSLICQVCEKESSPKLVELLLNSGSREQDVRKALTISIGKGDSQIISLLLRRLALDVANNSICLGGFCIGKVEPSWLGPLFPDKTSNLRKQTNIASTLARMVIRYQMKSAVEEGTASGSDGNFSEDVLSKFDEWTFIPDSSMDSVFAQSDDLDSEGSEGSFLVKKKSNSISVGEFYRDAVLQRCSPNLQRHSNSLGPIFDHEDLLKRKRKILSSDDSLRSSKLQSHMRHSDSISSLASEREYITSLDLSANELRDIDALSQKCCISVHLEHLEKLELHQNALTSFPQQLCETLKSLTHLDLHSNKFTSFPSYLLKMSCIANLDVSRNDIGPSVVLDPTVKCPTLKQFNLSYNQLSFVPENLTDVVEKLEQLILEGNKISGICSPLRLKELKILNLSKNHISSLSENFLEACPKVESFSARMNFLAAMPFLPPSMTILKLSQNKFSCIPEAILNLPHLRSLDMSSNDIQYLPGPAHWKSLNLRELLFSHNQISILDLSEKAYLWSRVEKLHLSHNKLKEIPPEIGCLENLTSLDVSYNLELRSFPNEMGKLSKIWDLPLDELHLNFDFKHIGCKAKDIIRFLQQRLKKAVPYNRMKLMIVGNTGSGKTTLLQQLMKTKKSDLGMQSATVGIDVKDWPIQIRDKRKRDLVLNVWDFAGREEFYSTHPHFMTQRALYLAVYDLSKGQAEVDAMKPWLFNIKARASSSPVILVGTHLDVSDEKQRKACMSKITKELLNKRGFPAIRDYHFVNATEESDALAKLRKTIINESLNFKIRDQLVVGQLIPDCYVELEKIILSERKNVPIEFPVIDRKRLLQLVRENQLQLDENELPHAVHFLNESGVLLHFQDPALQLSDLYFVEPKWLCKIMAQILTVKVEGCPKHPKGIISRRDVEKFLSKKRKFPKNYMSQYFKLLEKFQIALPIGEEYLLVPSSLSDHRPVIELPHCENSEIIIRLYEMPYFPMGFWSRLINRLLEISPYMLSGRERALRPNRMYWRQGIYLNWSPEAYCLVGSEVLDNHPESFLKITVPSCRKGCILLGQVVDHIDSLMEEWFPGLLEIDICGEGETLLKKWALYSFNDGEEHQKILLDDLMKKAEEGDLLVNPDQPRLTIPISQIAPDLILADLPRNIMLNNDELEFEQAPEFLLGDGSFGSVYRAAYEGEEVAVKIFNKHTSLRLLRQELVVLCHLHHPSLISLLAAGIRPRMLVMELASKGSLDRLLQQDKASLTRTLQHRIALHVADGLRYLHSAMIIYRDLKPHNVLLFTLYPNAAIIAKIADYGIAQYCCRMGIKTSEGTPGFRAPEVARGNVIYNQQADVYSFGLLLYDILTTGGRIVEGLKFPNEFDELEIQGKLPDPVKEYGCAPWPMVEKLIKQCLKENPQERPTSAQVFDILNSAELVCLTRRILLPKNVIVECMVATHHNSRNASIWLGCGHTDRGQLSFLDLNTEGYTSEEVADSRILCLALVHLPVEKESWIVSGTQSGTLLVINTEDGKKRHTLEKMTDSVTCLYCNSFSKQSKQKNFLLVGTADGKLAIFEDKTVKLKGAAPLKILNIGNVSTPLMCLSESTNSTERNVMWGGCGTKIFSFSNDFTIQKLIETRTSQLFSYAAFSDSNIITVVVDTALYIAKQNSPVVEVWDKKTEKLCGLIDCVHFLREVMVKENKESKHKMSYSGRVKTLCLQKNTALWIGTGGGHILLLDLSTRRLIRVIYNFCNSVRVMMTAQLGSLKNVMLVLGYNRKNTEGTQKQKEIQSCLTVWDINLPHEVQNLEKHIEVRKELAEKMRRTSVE
# Experimental: as §1
# LRRK2 G2019S = target: T9, LRRK2 G2019S (Homo sapiens, UniProt Q5S007, G2019S); experiment: SelectScreen Adapta; format: biochemical; settings: ATP Km, read-out: Percentage of inhibition
# T9 construct: purchased Life Technologies
# Experimental: as §1
# CAMK1 (CaMK1) = target: T10, CAMK1 (CaMK1) (Homo sapiens, UniProt Q14012); experiment: SelectScreen Adapta; format: biochemical; settings: ATP 10 µM, read-out: Percentage of inhibition
# T10 construct: purchased Life Technologies (SelectScreen Whole Panel service)
# Experimental: as §1
# PI4K2B (PI4K2 beta) = target: T11, PI4K2B (PI4K2 beta) (Homo sapiens, UniProt Q8TCG2); experiment: SelectScreen Adapta; format: biochemical; settings: ATP Km, read-out: Percentage of inhibition
# T11 construct: purchased Life Technologies (SelectScreen Whole Panel)
# Experimental: as §1
# CDK4/cyclin D3 = target: T12, CDK4/cyclin D3 (Homo sapiens, UniProt P11802); experiment: SelectScreen Adapta; format: biochemical; settings: ATP 10 µM, read-out: Percentage of inhibition
# T12 construct: purchased Life Technologies
# T12 sequence (P11802 whole entry): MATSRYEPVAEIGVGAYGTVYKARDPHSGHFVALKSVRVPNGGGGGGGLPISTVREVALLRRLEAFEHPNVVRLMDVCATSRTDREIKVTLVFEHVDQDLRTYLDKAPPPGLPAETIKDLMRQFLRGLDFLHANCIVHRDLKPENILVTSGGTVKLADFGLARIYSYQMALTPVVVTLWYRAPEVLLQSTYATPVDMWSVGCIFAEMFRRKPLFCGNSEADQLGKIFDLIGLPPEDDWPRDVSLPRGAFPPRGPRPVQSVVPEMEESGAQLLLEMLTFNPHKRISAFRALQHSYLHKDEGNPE
# T12 sequence (P30281 whole entry partner): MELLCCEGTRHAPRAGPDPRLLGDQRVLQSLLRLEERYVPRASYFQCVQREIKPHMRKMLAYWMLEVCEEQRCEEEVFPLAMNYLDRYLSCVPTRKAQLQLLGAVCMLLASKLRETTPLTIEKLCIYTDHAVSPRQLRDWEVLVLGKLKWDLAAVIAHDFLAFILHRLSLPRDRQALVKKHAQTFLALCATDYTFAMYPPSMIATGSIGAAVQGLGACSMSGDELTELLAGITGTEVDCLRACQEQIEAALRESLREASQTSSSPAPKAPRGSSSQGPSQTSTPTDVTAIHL
# Experimental: as §1
# SPHK1 = target: T13, SPHK1 (Homo sapiens, UniProt Q9NYA1); experiment: SelectScreen Adapta; format: biochemical; settings: ATP Km, read-out: Percentage of inhibition
# T13 construct: purchased Life Technologies (SelectScreen Whole Panel)
# Experimental: as §1
# PIP5K1A = target: T14, PIP5K1A (Homo sapiens, UniProt Q99755); experiment: SelectScreen Adapta; format: biochemical; settings: ATP 10 µM, read-out: Percentage of inhibition
# T14 construct: purchased Life Technologies (SelectScreen service)
# Experimental: as §1
# PI4KA (PI4K alpha) = target: T15, PI4KA (PI4K alpha) (Homo sapiens, UniProt P42356); experiment: SelectScreen Adapta; format: biochemical; settings: ATP 10 µM, read-out: Percentage of inhibition
# T15 construct: purchased Life Technologies (SelectScreen Whole Panel)
# Experimental: as §1
# LRRK2 R1441C = target: T16, LRRK2 R1441C (Homo sapiens, UniProt Q5S007, R1441C); experiment: SelectScreen Adapta; format: biochemical; settings: ATP Km, read-out: Percentage of inhibition
# T16 construct: purchased Life Technologies
# T16 sequence (Q5S007 970-2527 R1441C limits assumed): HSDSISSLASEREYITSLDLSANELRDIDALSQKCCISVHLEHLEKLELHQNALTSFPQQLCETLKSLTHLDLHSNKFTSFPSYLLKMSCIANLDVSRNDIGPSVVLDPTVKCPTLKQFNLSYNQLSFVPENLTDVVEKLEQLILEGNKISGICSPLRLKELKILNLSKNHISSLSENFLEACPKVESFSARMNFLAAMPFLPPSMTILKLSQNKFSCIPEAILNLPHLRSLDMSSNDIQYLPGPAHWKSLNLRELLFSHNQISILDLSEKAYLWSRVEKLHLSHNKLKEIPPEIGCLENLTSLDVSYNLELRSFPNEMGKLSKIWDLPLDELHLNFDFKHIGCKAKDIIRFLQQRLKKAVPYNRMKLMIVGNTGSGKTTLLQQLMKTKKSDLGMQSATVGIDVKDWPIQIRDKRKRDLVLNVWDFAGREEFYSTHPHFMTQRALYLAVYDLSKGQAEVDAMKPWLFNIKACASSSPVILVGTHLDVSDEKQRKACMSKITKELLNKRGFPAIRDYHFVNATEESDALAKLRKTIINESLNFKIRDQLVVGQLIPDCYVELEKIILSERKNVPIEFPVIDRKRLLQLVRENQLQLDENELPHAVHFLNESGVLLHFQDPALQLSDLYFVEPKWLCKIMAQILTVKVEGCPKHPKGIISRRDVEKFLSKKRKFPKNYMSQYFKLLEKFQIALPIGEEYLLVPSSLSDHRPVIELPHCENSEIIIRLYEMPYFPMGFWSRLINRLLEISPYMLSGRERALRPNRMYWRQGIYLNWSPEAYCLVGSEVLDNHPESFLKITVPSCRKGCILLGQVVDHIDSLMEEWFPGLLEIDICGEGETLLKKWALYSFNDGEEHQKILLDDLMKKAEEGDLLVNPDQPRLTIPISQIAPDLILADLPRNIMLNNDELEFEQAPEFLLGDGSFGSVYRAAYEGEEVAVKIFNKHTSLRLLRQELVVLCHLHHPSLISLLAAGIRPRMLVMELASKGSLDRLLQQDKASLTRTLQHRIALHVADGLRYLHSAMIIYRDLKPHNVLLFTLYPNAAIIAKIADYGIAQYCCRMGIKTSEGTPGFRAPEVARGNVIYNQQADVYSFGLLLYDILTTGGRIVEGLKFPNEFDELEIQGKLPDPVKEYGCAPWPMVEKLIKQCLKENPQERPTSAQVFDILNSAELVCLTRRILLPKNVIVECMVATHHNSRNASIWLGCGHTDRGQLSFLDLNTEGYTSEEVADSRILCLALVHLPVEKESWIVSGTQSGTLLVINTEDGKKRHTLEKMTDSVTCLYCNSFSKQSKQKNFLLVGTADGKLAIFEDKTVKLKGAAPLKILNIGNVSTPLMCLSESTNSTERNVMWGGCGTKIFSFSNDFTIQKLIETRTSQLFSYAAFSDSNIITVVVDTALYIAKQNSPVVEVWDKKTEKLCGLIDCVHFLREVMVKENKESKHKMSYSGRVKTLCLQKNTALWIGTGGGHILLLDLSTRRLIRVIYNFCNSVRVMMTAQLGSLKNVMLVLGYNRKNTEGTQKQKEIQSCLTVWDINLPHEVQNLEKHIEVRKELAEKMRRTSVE
# Experimental: as §1
# LRRK2 I2020T = target: T17, LRRK2 I2020T (Homo sapiens, UniProt Q5S007, I2020T); experiment: SelectScreen Adapta; format: biochemical; settings: ATP Km, read-out: Percentage of inhibition
# T17 construct: purchased Life Technologies (SelectScreen Whole Panel)
# T17 sequence (Q5S007 970-2527 I2020T limits assumed): as the sequence (Q5S007 970-2527 R1441C limits assumed) above, with C472R, I1051T counted along it
# Experimental: as §1
# PIK3CG (p110 gamma) = PIK3CG (p110 gamma) (Homo sapiens, UniProt P48736); experiment: SelectScreen Adapta; format: biochemical; settings: ATP Km, read-out: Percentage of inhibition
# Experimental: as §1
# PI4K2A (PI4K2 alpha) = target: T18, PI4K2A (PI4K2 alpha) (Homo sapiens, UniProt Q9BTU6); experiment: SelectScreen Adapta; format: biochemical; settings: ATP Km, read-out: Percentage of inhibition
# T18 construct: purchased Life Technologies (SelectScreen Whole Panel)
# Experimental: as §1
# PIK3C2B = PIK3C2B (Homo sapiens, UniProt O00750); experiment: SelectScreen Adapta; format: biochemical; settings: ATP 10 µM, read-out: Percentage of inhibition
# Experimental: as §1
# [7] = target: PIK3CA E542K/PIK3R1 (p110 alpha E542K/p85 alpha (Homo sapiens, UniProt P42336, E542K)); experiment: SelectScreen Adapta; format: biochemical; settings: ATP 10 µM, read-out: Percentage of inhibition
# Experimental: as §1
# LRRK2 = target: T19, LRRK2 (Homo sapiens, UniProt Q5S007); experiment: SelectScreen Adapta; format: biochemical; settings: ATP Km, read-out: Percentage of inhibition
# T19 construct: purchased Life Technologies (SelectScreen service)
# T19 sequence (Q5S007 970-2527 limits assumed): as the sequence (Q5S007 970-2527 R1441C limits assumed) above, with C472R counted along it
# Experimental: as §1
# SPHK2 = target: T20, SPHK2 (Homo sapiens, UniProt Q9NRA0); experiment: SelectScreen Adapta; format: biochemical; settings: ATP 10 µM, read-out: Percentage of inhibition
# T20 construct: purchased Life Technologies (SelectScreen Whole Panel)
# Experimental: as §1
# PIK3C2A (PI3K-C2 alpha) = PIK3C2A (PI3K-C2 alpha) (Homo sapiens, UniProt O00443); experiment: SelectScreen Adapta; format: biochemical; settings: ATP Km, read-out: Percentage of inhibition
# Experimental: as §1
# LRRK2 G2019S FL = target: T21, LRRK2 G2019S FL (Homo sapiens, UniProt Q5S007, G2019S); experiment: SelectScreen Adapta; format: biochemical; settings: ATP Km, read-out: Percentage of inhibition
# T21 construct: LRRK2 G2019S FL; purchased Life Technologies (SelectScreen Whole Panel)
# Experimental: as §1
# DAPK1 = DAPK1 (Homo sapiens, UniProt P53355); experiment: SelectScreen Adapta; format: biochemical; settings: ATP Km, read-out: Percentage of inhibition
# Experimental: as §1
# CHUK (IKK alpha) = target: T22, CHUK (IKK alpha) (Homo sapiens, UniProt O15111); experiment: SelectScreen Adapta; format: biochemical; settings: ATP Km, read-out: Percentage of inhibition
# T22 construct: purchased Life Technologies
# Experimental: as §1
# CDK4/cyclin D1 = target: T23, CDK4/cyclin D1 (Homo sapiens, UniProt P11802); experiment: SelectScreen Adapta; format: biochemical; settings: ATP 10 µM, read-out: Percentage of inhibition
# T23 construct: purchased Life Technologies (SelectScreen Whole Panel service)
# T23 sequence (P11802 whole entry): as the sequence (P11802 whole entry) above
# T23 sequence (P24385 whole entry partner): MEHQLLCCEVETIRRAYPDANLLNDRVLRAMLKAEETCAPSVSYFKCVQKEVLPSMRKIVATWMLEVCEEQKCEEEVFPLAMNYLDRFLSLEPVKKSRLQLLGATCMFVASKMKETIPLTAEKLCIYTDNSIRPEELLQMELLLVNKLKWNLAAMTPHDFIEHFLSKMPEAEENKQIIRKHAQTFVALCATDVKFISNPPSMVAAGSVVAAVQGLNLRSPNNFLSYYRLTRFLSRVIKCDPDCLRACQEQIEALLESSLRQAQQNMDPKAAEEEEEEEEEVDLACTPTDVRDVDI
# Experimental: as §1
smiles,measurement,setting,value
"COc1ccc2[nH]c3c(=O)[nH]c4ccc(O)cc4c3c2c1 [Compound 55, 2-Hydroxy-10-methoxy-5,7-dihydro-6H-indolo[2,3-c]quinolin-6-one]",Reduction of cell viability compared to the DMSO control,[1],≥ 75%
same,inhibition at 1 µM,NUAK1 (ARK5),65%
same,inhibition at 1 µM,IRAK1,91%
same,inhibition at 1 µM,[2],62%
same,inhibition at 1 µM,PIP5K1C,49%
same,inhibition at 1 µM,[3],33%
same,inhibition at 1 µM,[4],51%
same,inhibition at 1 µM,[5],9%
same,inhibition at 1 µM,CDK9/cyclin T1,70%
same,inhibition at 1 µM,PIK3C3 (hVPS34),9%
same,inhibition at 1 µM,[6],44%
same,inhibition at 1 µM,LRRK2 FL,95%
same,inhibition at 1 µM,LRRK2 G2019S,95%
same,inhibition at 1 µM,CAMK1 (CaMK1),10%
same,inhibition at 1 µM,PI4K2B (PI4K2 beta),1%
same,inhibition at 1 µM,CDK4/cyclin D3,5%
same,inhibition at 1 µM,SPHK1,-3%
same,inhibition at 1 µM,PIP5K1A,23%
same,inhibition at 1 µM,PI4KA (PI4K alpha),0%
same,inhibition at 1 µM,LRRK2 R1441C,93%
same,inhibition at 1 µM,LRRK2 I2020T,100%
same,inhibition at 1 µM,PIK3CG (p110 gamma),19%
same,inhibition at 1 µM,PI4K2A (PI4K2 alpha),1%
same,inhibition at 1 µM,PIK3C2B,67%
same,inhibition at 1 µM,[7],70%
same,inhibition at 1 µM,LRRK2,90%
same,inhibition at 1 µM,SPHK2,-1%
same,inhibition at 1 µM,PIK3C2A (PI3K-C2 alpha),14%
same,inhibition at 1 µM,LRRK2 G2019S FL,98%
same,inhibition at 1 µM,DAPK1,57%
same,inhibition at 1 µM,CHUK (IKK alpha),38%
same,inhibition at 1 µM,CDK4/cyclin D1,12%
